Results taken from patent publication US6552018B1, “Pyrazole derivatives” (Daiichi Pharmaceutical Co., Ltd., priority 1997, dated 2003).
In brackets after ≈: the same amount, converted by molar mass. Where a name gives a salt, the structure may show the parent alone.

Tests used:
[1] = system: Tumor cells PC-6; assay: Tumor cell growth inhibition (MTT), PC-6; assay type: cell-based; conditions: Homo sapiens, 72 h, PC-6 cells, culturing for 3 days with compound, absorbance at 540 nm, read-out: GI50, concentration of the compound which showed 50% inhibition on cell growth as compared with a control group, PC-6
Experimental: (§1) Tumor cells PC-12 and PC-6, which had been serially cultured in RPMI 1640 containing 10% fetal bovine serum, 2 mM L-glutamine, and 100 μg/ml of kanamycin sulfate, were inoculated to a 96-well microplate (1.0×10^3 cells-PC-12/150 μl/well; 5.0×10^3 cells-PC-6/150 μl/well). After 24-hour incuvation, 50 μl of a preparation containing each of the compounds of Examples 5 to 8 and Example 13 (hereinafter described) in a varied concentration was added to each well, followed by culturing for 3 days. A 5 mg/ml solution of 3-(4,5-dimethylthiazol-2-yl)-2,5-diphenyl-2H-tetrazolium bromide (MTT) was added in an amount of 20 μl per well. Four hours later, the culture broth was removed, 150 μl/well of dimethyl sulfoxide was added to the residue, and the absorbance was measured at 540 nm.

[2] = system: Tumor cells PC-12; assay: Tumor cell growth inhibition (MTT), PC-12; assay type: cell-based; conditions: PC-12 cells, culturing for 3 days with compound, absorbance at 540 nm; for GI50: Rattus norvegicus, PC-12, 72 h, read-out: GI50, concentration of the compound which showed 50% inhibition on cell growth as compared with a control group, PC-12
Experimental: as §1

## COc1cccnc1-n1ncc(/C=C/CN2CCN(c3cc(Cl)cc(Cl)c3)CC2)c1C.Cl [Example 13, 3-[4-(3,5-Dichlorophenyl)-1-piperazinyl]-1-[1-(3-methoxy-2-pyridyl)-5-methyl-4-pyrazolyl]-1-trans-propene Hydrochloride]
[1]
  GI50: 0.00493 µg/mL
[2]
  GI50: 0.0383 µg/mL

## CNc1cc(-n2ncc(/C=C/CN3CCN(c4cc(F)cc(F)c4)CC3)c2C)nc(N)n1.Cl [Example 59, 1-[1-(2-Amino-6-methylamino-4-pyrimidinyl)-5-methyl-4-pyrazolyl]-3-[4-(3,5-difluorophenyl)-1-piperazinyl]-1-trans-propene Hydrochloride]
[2]
  GI50: 0.011 µg/mL

## Cc1c(/C=C/CN2CCN(c3cccc(Cl)c3)CC2)cnn1-c1ncccc1Cl.Cl [Example 8, 3-[4-(3-Chlorophenyl)-1-piperazinyl]-1-[1-(3-chloro-2-pyridyl)-5-methyl-4-pyrazolyl]-1-propene Hydrochloride]
[1]
  GI50: 0.0373 µg/mL
[2]
  GI50: 0.21 µg/mL

## Cc1c(/C=C/CN2CCN3c4ccccc4CCC3C2)cnn1-c1cc(N(C)C)nc(N)n1 (single isomer, unassigned; isomer b) [Example 68, 3-[3-[1-(2-Amino-6-dimethylamino-4-pyrimidinyl)-5-methyl-4-pyrazolyl]-2-trans-propen-1-yl]-2,3,4,4a,5,6-hexahydro-1H-pyrazino[1,2-a]quinoline Hydrochloride (Isomer B)]
[2]
  GI50, concentration of the compound which showed 50% inhibition on cell growth as compared with a control group, PC-12: 0.00916 µg/mL

## Cc1c(/C=C/CN2CCN(c3cc(F)cc(F)c3)CC2)cnn1-c1cc(N)nc(N)n1.Cl [Example 58, 1-[1-(2,6-Diamino-4-pyrimidinyl)-5-methyl-4-pyrazolyl]-3-[4-(3,5-difluorophenyl)-1-piperazinyl]-1-trans-propene Hydrochloride]
[2]
  GI50: 0.0134 µg/mL

## Cc1c(/C=C/CN2CCN3c4ccccc4CCC3C2)cnn1-c1cc(N(C)C)nc(N)n1 (single isomer, unassigned; isomer a) [Example 67, 3-[3-[1-(2-Amino-6-dimethylamino-4-pyrimidinyl)-5-methyl-4-pyrazolyl]-2-trans-propen-1-yl]-2,3,4,4a,5,6-hexahydro-1H-pyrazino[1,2-a]quinoline Hydrochloride (Isomer A)]
[2]
  GI50, concentration of the compound which showed 50% inhibition on cell growth as compared with a control group, PC-12: 0.0662 µg/mL

## Cc1c(/C=C/CN2CCN3c4ccccc4CC3C2)cnn1-c1cc(N(C)C)nc(N)n1 (racemic) [Example 72, (+/−)-2-[3-[1-(2-Amino-6-dimethylamino-4-pyrimidinyl)-5-methyl-4-pyrazolyl]-2-trans-propen-1-yl]-1,2,3,4,10,10a-hexahydropyrazino[1,2-a]indole Hydrochloride]
[2]
  GI50: 0.035 µg/mL

## Cc1c(/C=C/CN2CCN(c3cc(F)cc(Cl)c3)CC2)cnn1-c1ncccc1Cl.Cl [Example 5, 3-[4-(3-Chloro-5-fluorophenyl)-1-piperazinyl]-1-[1-(3-chloro-2-pyridyl)-5-methyl-4-pyrazolyl]-1-trans-propene Hydrochloride]
[1]
  GI50: 0.0106 µg/mL
[2]
  GI50: 0.0913 µg/mL

## Cc1c(/C=C/CN2CCN3c4cc(F)ccc4OCC3C2)cnn1-c1cc(N(C)C)nc(N)n1 (racemic) [Example 71, (+/−)-3-[3-[1-(2-Amino-6-dimethylamino-4-pyrimidinyl)-5-methyl-4-pyrazolyl]-2-trans-propen-1-yl]-9-fluoro-2,3,4,4a,5,6-hexahydro-1H-pyrazino[2,1-c]-1,4-benzoxazine Hydrochloride]
[2]
  GI50: 0.00537 µg/mL

## Cc1c(/C=C/CN2CCN(c3cc(Cl)cc(Cl)c3)CC2)cnn1-c1ncccc1Cl.Cl [Example 7]
[1]
  GI50: 0.0382 µg/mL
[2]
  GI50: 0.237 µg/mL

## Cc1c(/C=C/CN2CCN3c4cc(F)ccc4CCC3C2)cnn1-c1cc(N(C)C)nc(N)n1 (single isomer, unassigned; isomer b) [Example 70, 3-[3-(1-(2-Amino-6-dimethylamino-4-pyrimidin-yl)-5-methyl-4-pyrazolyl)-2-trans-propen-1-yl]-9-fluoro-2,3,4,4a,5,6-hexahydro-1H-pyrazino[1,2-a]quinoline (Isomer B)]
[2]
  GI50: 0.0101 µg/mL (≈ 0.0218 µM)

## Cc1c(/C=C/CN2CCN(c3cc(F)cc(F)c3)CC2)cnn1-c1nc(N)nc(N(C)C)n1.Cl [Example 60, 1-[1-(2-Amino-4-dimethylamino-1,3,5-triazin-6-yl)-5-methyl-4-pyrazolyl]-3-[4-(3,5-difluorophenyl)-1-piperazinyl]-1-trans-propene Hydrochloride]
[2]
  GI50: 0.0207 µg/mL

## Cc1c(/C=C/CN2CCN3c4cc(F)ccc4CCC3C2)cnn1-c1cc(N(C)C)nc(N)n1.Cl (single isomer, unassigned; isomer a) [Example 69, 3-[3-[1-(2-Amino-6-dimethylamino-4-pyrimidinyl)-5-methyl-4-pyrazolyl]-2-trans-propen-1-yl]-9-fluoro-2,3,4,4a,5,6-hexahydro-1H-pyrazin[1,2-a]quinoline Hydrochloride (Isomer A)]
[2]
  GI50: 0.0246 µg/mL

## Cc1c(/C=C/CN2CCN(c3cc(F)cc(F)c3)CC2)cnn1-c1ncccc1Cl.Cl [Example 6, 1-[1-(3-Chloro-2-pyridyl)-5-methyl-4-pyrazolyl]-3-[4-(3,5-difluorophenyl)-1-piperazinyl]-1-trans-propene Hydrochloride]
[1]
  GI50: 0.00879 µg/mL
[2]
  GI50: 0.0347 µg/mL

## Cc1c(/C=C/CN2CCN(c3cc(F)cc(F)c3)CC2)cnn1-c1ncccc1I (as salt: hydrochloride)
other
  melting point: 212 to 216 °C (dec.)
